Reference: paper PMC5761851, “Application of a phenotypic drug discovery strategy to identify biological and chemical starting points for inhibition of TSLP production in lung epithelial cells” (PLoS ONE, 2018)

Key:
Assay in all cases: kinase selectivity panel
Type in all cases: biochemical
Lck = target: T1, Lck (Homo sapiens, UniProt P06239); conditions: for remaining activity at 10 µM: read-out: percentage of control activity (POC), Lck
T1 construct: Eurofins Pharma Discovery Services (contract assay service)
T1 sequence (P06239 whole entry, species assumed): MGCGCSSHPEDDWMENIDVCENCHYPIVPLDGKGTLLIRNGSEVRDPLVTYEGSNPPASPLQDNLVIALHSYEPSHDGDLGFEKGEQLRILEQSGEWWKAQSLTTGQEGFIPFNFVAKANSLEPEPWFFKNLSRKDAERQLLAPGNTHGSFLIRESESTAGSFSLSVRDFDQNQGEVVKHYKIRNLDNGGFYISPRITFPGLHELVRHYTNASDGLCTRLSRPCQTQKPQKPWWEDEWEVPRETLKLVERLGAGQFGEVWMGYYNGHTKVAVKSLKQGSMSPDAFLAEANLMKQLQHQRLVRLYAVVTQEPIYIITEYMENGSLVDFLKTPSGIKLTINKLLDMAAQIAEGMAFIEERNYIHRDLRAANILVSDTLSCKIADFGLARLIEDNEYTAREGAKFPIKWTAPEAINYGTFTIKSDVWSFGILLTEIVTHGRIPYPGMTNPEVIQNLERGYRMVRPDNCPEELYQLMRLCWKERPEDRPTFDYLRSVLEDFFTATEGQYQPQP
Procedure, shortened: (§1)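 First, 125 representative kinases were exposed to 10 μM compound in duplicate; next, selected activities were titrated over 9 concentrations in duplicate, and IC50 values were calculated.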

PI3K (p110a/p85a) = target: T2, PI3K (p110a/p85a) (Homo sapiens, UniProt P42336); conditions: read-out: percentage of control activity (POC), PI3K (p110a/p85a)
T2 construct: purchased Eurofins Pharma Discovery Services (KinaseProfiler; Cerep BioPrint panel)
T2 sequence (P42336 whole entry): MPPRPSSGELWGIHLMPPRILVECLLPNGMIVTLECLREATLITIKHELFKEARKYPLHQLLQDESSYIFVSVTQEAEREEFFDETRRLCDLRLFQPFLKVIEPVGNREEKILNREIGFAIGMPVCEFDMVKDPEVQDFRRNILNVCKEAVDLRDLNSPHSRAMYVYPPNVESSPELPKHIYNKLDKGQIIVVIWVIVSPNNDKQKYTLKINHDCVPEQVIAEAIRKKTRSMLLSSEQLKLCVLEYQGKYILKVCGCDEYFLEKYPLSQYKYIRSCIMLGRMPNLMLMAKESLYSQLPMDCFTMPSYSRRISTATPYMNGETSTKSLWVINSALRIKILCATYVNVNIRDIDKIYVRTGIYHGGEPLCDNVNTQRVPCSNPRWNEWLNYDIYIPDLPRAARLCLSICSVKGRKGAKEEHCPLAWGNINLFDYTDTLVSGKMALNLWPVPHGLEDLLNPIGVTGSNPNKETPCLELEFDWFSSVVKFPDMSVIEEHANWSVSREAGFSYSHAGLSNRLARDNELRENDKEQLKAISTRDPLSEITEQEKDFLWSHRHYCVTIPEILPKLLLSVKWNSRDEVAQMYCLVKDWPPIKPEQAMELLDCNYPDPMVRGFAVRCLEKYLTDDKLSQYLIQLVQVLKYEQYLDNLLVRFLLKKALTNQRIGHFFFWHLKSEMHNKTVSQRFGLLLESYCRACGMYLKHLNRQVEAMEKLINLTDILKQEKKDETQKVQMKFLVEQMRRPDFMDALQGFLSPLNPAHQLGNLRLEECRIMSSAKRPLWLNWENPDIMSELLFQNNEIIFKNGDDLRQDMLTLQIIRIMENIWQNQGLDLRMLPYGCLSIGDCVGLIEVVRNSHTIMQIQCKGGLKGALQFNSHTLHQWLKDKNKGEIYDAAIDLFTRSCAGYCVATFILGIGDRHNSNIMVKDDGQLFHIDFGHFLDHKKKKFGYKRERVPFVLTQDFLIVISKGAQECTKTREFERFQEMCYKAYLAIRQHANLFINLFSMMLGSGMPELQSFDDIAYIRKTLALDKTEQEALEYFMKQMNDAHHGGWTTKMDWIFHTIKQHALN
T2 sequence (P27986 whole entry partner): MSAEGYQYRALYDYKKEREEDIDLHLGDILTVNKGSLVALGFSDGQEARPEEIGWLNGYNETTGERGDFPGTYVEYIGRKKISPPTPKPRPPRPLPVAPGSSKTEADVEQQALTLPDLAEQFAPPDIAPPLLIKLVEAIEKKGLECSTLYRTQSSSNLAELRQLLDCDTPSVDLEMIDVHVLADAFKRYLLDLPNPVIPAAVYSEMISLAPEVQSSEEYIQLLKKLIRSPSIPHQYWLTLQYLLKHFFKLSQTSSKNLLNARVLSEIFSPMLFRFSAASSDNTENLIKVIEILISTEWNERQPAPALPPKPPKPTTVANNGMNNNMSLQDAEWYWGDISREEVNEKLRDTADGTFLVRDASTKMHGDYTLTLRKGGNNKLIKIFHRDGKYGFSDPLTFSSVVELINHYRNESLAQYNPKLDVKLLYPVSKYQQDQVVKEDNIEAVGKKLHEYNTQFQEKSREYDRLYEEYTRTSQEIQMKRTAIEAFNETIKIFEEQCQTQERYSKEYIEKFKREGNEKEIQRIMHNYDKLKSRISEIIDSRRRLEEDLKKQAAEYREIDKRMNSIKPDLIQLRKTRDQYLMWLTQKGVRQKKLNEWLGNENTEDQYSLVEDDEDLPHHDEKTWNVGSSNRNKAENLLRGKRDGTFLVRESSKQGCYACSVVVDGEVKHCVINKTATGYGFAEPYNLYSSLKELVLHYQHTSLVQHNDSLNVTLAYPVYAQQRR
Procedure, shortened: as §1

Pim-1 = target: T3, Pim-1 (Homo sapiens, UniProt P11309); conditions: read-out: percentage of control activity (POC), Pim-1
T3 construct: purchased Eurofins Pharma Discovery Services (KinaseProfiler; Cerep BioPrint panel)
T3 sequence (P11309 whole entry): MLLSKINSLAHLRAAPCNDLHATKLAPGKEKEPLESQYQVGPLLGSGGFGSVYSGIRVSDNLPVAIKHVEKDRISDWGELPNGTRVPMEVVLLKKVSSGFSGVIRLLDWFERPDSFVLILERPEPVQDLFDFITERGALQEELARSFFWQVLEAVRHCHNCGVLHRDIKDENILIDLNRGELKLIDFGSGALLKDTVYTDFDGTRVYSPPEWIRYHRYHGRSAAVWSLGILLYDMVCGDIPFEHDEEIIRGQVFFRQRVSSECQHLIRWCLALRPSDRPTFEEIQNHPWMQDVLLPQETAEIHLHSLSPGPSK
Procedure, shortened: as §1

TrkB = target: T4, TrkB (Homo sapiens, UniProt Q16620); conditions: for remaining activity at 10 µM: read-out: percentage of control activity (POC), TrkB
T4 construct: purchased Eurofins Pharma Discovery Services (KinaseProfiler; Cerep BioPrint panel)
T4 sequence (Q16620 32-822): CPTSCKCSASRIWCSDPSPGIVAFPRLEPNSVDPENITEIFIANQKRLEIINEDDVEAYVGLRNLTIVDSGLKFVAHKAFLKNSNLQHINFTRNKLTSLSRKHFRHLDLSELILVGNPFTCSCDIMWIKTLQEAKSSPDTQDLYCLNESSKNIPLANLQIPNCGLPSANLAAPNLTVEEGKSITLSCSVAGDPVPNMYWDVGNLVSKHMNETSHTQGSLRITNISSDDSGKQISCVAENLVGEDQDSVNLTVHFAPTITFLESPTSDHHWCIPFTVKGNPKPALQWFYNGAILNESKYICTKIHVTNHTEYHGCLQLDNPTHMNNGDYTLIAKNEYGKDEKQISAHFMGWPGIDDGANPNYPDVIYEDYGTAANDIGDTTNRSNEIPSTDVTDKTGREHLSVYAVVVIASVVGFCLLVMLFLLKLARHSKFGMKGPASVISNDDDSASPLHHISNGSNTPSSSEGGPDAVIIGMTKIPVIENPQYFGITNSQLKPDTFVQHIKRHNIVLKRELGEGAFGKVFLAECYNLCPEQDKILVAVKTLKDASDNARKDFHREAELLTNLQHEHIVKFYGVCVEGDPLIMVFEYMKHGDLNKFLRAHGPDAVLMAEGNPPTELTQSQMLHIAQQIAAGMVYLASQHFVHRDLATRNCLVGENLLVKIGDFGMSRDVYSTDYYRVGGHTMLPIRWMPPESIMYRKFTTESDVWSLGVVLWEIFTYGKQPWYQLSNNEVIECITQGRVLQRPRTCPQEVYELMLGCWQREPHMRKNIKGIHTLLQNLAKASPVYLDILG
Procedure, shortened: as §1

PI3K (p120g) = target: T5, PI3K (p120g) (Homo sapiens, UniProt P48736); conditions: for remaining activity at 10 µM: read-out: percentage of control activity (POC), PI3K (p120g)
T5 construct: Eurofins Pharma Discovery Services (contract assay service)
T5 sequence (P48736 whole entry): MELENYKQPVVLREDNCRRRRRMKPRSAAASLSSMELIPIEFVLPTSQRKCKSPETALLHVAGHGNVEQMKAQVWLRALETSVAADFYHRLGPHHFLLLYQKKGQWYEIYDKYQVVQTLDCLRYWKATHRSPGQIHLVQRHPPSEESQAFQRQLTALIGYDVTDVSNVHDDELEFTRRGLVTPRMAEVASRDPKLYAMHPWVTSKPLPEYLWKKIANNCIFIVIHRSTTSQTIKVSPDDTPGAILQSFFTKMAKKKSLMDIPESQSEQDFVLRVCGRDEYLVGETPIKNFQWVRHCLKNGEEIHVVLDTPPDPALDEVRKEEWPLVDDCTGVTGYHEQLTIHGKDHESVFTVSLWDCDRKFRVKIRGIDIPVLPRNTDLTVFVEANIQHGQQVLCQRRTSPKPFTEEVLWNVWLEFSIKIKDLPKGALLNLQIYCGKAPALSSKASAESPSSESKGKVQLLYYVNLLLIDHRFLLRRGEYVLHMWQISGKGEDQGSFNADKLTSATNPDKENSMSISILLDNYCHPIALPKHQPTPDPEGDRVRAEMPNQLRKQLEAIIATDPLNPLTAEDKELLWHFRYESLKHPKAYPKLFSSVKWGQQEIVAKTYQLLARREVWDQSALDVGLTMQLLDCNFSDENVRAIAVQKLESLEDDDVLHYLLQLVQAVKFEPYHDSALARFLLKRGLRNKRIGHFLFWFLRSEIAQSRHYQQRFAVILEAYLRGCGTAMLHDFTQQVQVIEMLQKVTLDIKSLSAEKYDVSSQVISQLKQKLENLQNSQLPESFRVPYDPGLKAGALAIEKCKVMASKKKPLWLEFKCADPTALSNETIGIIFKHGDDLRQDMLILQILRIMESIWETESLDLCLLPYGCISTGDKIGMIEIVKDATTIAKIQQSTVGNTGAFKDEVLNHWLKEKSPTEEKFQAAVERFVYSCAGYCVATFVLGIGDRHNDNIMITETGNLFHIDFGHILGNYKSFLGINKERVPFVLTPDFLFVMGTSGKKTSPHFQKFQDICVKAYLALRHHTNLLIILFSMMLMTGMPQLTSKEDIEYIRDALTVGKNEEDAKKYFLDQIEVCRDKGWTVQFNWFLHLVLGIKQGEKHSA
Procedure, shortened: as §1

PKCδ = target: T6, PKCδ (Homo sapiens, UniProt Q05655); conditions: read-out: percentage of control activity (POC), PKCδ
T6 construct: purchased Eurofins Pharma Discovery Services (KinaseProfiler; Cerep BioPrint panel)
Procedure, shortened: as §1

Flt1 = target: T7, Flt1 (Homo sapiens, UniProt P17948); conditions: read-out: percentage of control activity (POC), Flt1
T7 construct: purchased Eurofins Pharma Discovery Services (KinaseProfiler; Cerep BioPrint panel)
Procedure, shortened: as §1

PKCγ = target: T8, PKCγ (Homo sapiens, UniProt P05129); conditions: read-out: percentage of control activity (POC), PKCγ
T8 construct: purchased Eurofins Pharma Discovery Services (KinaseProfiler; Cerep BioPrint panel)
Procedure, shortened: as §1

ASK1 = target: T9, ASK1 (Homo sapiens, UniProt Q99683); conditions: read-out: percentage of control activity (POC), ASK1
T9 construct: purchased Eurofins Pharma Discovery Services (KinaseProfiler; Cerep BioPrint panel)
T9 sequence (Q99683 1-1374): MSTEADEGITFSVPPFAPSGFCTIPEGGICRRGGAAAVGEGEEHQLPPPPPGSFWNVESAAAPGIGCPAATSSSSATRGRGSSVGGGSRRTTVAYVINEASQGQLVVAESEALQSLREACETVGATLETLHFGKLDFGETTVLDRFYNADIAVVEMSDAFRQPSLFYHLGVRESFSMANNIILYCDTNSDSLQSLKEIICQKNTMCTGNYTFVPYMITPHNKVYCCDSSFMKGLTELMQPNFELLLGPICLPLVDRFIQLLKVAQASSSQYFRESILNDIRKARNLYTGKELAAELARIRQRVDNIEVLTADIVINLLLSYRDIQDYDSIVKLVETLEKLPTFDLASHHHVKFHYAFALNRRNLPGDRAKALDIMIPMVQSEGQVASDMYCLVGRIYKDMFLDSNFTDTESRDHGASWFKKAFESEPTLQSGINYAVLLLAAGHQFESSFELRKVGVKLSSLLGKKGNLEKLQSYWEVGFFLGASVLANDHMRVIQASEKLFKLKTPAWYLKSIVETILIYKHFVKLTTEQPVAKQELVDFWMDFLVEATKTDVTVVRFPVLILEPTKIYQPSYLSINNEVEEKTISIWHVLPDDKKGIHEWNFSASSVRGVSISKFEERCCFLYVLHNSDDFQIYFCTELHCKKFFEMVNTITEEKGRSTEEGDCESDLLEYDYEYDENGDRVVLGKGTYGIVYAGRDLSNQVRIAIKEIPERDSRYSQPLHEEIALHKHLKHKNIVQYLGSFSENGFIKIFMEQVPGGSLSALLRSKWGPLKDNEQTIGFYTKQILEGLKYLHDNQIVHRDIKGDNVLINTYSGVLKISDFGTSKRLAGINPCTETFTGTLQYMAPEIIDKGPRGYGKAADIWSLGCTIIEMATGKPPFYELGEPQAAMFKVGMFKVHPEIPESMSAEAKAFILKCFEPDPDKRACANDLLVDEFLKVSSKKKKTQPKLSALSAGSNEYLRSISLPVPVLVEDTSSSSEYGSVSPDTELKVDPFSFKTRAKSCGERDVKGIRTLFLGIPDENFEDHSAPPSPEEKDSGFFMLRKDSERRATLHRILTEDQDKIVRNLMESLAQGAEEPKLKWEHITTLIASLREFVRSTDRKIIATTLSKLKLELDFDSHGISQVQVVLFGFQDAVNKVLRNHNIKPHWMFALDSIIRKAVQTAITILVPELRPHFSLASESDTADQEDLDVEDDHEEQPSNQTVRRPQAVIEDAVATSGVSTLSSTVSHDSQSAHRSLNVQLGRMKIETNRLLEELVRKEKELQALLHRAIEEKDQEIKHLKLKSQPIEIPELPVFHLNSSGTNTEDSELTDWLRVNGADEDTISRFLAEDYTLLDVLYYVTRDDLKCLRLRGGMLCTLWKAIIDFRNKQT
Procedure, shortened: as §1

GSK3β = target: T10, GSK3β (Homo sapiens, UniProt P49841); conditions: read-out: percentage of control activity (POC), GSK3β
T10 construct: purchased Eurofins Pharma Discovery Services (KinaseProfiler; Cerep BioPrint panel)
Procedure, shortened: as §1

MST1 = target: T11, MST1 (Homo sapiens, UniProt Q13043); conditions: read-out: percentage of control activity (POC), MST1
T11 construct: purchased Eurofins Pharma Discovery Services (KinaseProfiler; Cerep BioPrint panel)
T11 sequence (Q13043 1-487): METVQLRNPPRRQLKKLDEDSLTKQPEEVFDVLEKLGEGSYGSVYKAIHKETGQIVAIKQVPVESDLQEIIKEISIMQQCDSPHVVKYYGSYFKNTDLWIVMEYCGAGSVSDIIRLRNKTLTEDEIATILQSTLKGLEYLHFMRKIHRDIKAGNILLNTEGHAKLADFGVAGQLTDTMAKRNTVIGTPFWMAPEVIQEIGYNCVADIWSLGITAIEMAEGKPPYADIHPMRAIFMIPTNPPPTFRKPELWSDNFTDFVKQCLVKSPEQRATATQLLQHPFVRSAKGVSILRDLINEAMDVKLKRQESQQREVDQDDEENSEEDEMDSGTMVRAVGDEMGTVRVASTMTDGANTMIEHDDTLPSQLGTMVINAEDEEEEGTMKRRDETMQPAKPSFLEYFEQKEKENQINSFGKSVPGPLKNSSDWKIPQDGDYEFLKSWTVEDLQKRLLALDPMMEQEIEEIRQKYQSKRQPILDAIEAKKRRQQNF
Procedure, shortened: as §1

cSRC = target: T12, cSRC (Homo sapiens, UniProt P12931); conditions: read-out: percentage of control activity (POC), cSRC
T12 construct: purchased Eurofins Pharma Discovery Services (KinaseProfiler; Cerep BioPrint panel)
T12 sequence (P12931 whole entry): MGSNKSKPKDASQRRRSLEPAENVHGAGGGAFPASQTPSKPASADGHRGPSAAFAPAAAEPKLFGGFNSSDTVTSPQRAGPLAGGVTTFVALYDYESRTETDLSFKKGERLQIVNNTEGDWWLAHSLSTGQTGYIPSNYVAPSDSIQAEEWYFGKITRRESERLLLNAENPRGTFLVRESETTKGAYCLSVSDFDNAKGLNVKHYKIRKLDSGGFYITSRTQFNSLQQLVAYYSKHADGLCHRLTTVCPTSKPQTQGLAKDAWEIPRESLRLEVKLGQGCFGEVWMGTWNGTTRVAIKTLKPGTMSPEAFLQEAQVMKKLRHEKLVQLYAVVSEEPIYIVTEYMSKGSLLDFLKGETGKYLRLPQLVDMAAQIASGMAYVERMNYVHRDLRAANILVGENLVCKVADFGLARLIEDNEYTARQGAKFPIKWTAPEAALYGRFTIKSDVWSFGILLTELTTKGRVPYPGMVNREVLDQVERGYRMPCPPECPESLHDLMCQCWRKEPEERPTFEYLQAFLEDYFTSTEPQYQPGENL
Procedure, shortened: as §1

remaining activity at 10 µM (Lck; 10 μM) | remaining activity at 10 µM (PI3K (p110a/p85a)) | remaining activity at 10 µM (Pim-1) | inhibition at 10 µM (TrkB) | remaining activity at 10 µM (TrkB) | remaining activity at 10 µM (PI3K (p120g); 10 μM) | remaining activity at 10 µM (PKCδ) | remaining activity at 10 µM (Flt1) | remaining activity at 10 µM (PKCγ) | remaining activity at 10 µM (ASK1) | remaining activity at 10 µM (GSK3β) | remaining activity at 10 µM (MST1) | remaining activity at 10 µM (cSRC) | SMILES | inhibition at 10 µM (Lck; 10 μM) | IC50 (Lck; biochemical dose response, duplicate, read-out: Inhibition of indicated activity (IC50, μM): Lck) | inhibition at 10 µM (PI3K (p120g); 10 μM, read-out: inhibition of PI3K (p120γ)) | IC50 (PI3K (p120g); biochemical dose response, duplicate, read-out: Inhibition of indicated activity (IC50, μM): PI3K (p120γ))
98% | 97% | 86% | 75% | 25% | 92% | 109% | 114% | 117% | 100% | 99% | 103% | 107% | CC(C)(C)N1CCC(c2cc(-c3ccc(F)cc3Cl)c3cc[n+]([O-])c(-c4c(Cl)cccc4Cl)c3n2)CC1 [compound 2] |  |  |  | 
102% | 94% | 79% |  | 96% | 85% | 104% | 128% | 104% | 97% | 104% | 88% | 103% | Cc1ccc(C(=O)NCC2CC2)cc1-c1ccc2c(c1)NC(=O)C21CCCC1 [compound 3] |  |  |  | 
81% | 95% | 96% |  | 84% | 86% | 107% | 80% | 105% | 87% | 117% | 101% | 103% | COc1c(NC(=O)c2ccc(C)c(-c3nnc4c(NCC(C)(C)C)nccn34)c2)cc(C(C)(C)C)cc1NS(C)(=O)=O [compound 7, reference compound] |  |  |  | 

SMILES | remaining activity at 10 µM (Lck; 10 μM) | remaining activity at 10 µM (PI3K (p110a/p85a)) | remaining activity at 10 µM (Pim-1) | inhibition at 10 µM (TrkB) | remaining activity at 10 µM (TrkB) | remaining activity at 10 µM (PI3K (p120g); 10 μM) | remaining activity at 10 µM (PKCδ) | remaining activity at 10 µM (Flt1) | remaining activity at 10 µM (PKCγ) | remaining activity at 10 µM (ASK1) | remaining activity at 10 µM (GSK3β) | remaining activity at 10 µM (MST1) | remaining activity at 10 µM (cSRC) | inhibition at 10 µM (Lck; 10 μM) | IC50 (Lck; biochemical dose response, duplicate, read-out: Inhibition of indicated activity (IC50, μM): Lck) | inhibition at 10 µM (PI3K (p120g); 10 μM, read-out: inhibition of PI3K (p120γ)) | IC50 (PI3K (p120g); biochemical dose response, duplicate, read-out: Inhibition of indicated activity (IC50, μM): PI3K (p120γ))
Cn1cc(-c2cccc(-c3nc(C(=O)NC4C5CC6CC4CC(O)(C6)C5)c(N)nc3N)c2)cn1 (centres unmarked) [compound 4] | 44% | 60% | 68% |  | 57% | 33% | 97% | 84% | 96% | 92% | 105% | 58% | 69% | 56% | 3.33 µM | 67% | 4.78 µM
CS(=O)(=O)N1CCN(c2ccc(Nc3ncc(C(N)=O)c(NC4CC4)n3)cc2)CC1 [compound 5] | 4% | 96% | 81% |  | 3% | 86% | 8% | -3% | 4% | 0% | 25% | -1% | 16% |  |  |  | 
